Measured values reported in article PMC9571937, “Synthesis and Structure–Activity Relationship Studies of Pyrido [1,2-e]Purine-2,4(1H,3H)-Dione Derivatives Targeting Flavin-Dependent Thymidylate Synthase in Mycobacterium tuberculosis” (Molecules, 2022).
Read-outs that look alike come from different tables or passages of the source.

Legend:
Mtb ThyX [1] = biological target: T1, Mtb ThyX (Mycobacterium tuberculosis, UniProt P9WG57); test: M. tuberculosis ThyX tritium release assay; assay type: biochemical; details: 200 µM compound; for ThyX inhibition, tritium release assay: 200 µM
Mtb ThyX [2] = biological target: T1, Mtb ThyX; test: M. tuberculosis ThyX NADPH oxidase assay; assay type: biochemical; details: for Inhibition % (Mtb ThyX) / inhibition at 200 µM: 200 μM compound
viral pathogens = test: Evaluation on viral pathogens
ThyX = details: cited from earlier work
in vitro = assay type: cell-based; details: human
Method: Assays were performed in human peripheral blood mononuclear (PBM) cells via MTS assay using the CellTiter 96® Non-Radioactive Cell Proliferation (Promega) kit. Cytotoxicity was expressed as the concentration of test compounds that inhibited cell growth by 50% (CC50).

[3] = 50 µM inhibitor concentration, read-out: ThyX inhibition at 50 µM of inhibitors
[4] = NADPH oxidase assay, 50 µM FAD, read-out: Inhibition % (Mtb ThyX)
[5] = absence of added FAD, read-out: ThyX inhibition without FAD addition

T1 sequence (P9WG57 whole entry): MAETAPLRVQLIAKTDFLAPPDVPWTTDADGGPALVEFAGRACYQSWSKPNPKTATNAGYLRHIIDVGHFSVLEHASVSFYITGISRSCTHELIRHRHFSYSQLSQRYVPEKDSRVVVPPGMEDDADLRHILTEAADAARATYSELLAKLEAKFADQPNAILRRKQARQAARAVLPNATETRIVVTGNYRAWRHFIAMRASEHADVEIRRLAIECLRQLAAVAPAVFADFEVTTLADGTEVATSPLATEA

Row | SMILES | inhibition at 200 µM (Mtb ThyX [2]; [4]) [%] | further results
1 | O=c1[nH]c2c(nc3ccccn32)c(=O)n1-c1ccc(F)cc1 [Compound 9a, 3-(4-Fluorophenyl)pyrido [1,2-e]purine-2,4(1H,3H)-dione] | 59.5 | inhibition at 200 µM (Mtb ThyX [1]): 59.5%; inhibition at 50 µM (Mtb ThyX [2]; [3]): 18.4%; Inhibition % (Mtb ThyX) (Mtb ThyX [2]; NADPH oxidase assay, 50 µM FAD): 59.4%; inhibition at 200 µM (Mtb ThyX [2]; [5]): 76.1%; IC50 (Mtb ThyX [2]; calculated for 9a): 95000 nM; activity on viral pathogens (viral pathogens): some promiscuous activity; toxicity (viral pathogens; evaluation on viral pathogens): without toxicity
2 | Cc1ccc(-n2c(=O)[nH]c3c(nc4ccccn43)c2=O)cc1 [Compound 9d, 3-(p-Tolyl)pyrido [1,2-e]purine-2,4(1H,3H)-dione] | 55 | inhibition at 200 µM (Mtb ThyX [1]): 69.2%; ThyX inhibition, tritium release assay (Mtb ThyX [1]): 77.1%; inhibition at 50 µM (Mtb ThyX [2]; [3]): 2.6%; Inhibition % (Mtb ThyX) (Mtb ThyX [2]; NADPH oxidase assay, 50 µM FAD): 55.4%; inhibition at 200 µM (Mtb ThyX [2]; [5]): 20.4%
3 | O=c1[nH]c2c(nc3cc(Br)ccn32)c(=O)n1-c1ccc(F)cc1 [Compound 19a, 7-Bromo-3-(p-fluorophenyl)pyrido [1,2-e]purine-2,4(1H,3H)-dione] | 8.8 | 
4 | CCCCC#Cc1ccc2nc3c(=O)n(-c4ccc(F)cc4)c(=O)[nH]c3n2c1 [Compound 21c, 3-(p-Fluorophenyl)-8-hex-1-ynyl-1H-purino [9,8-a]pyridine-2,4-dione] | 0 | 
5 | O=c1[nH]c2c(nc3ccc(Br)cn32)c(=O)n1-c1ccc(F)cc1 [Compound 19b, 8-Bromo-3-(p-fluorophenyl)pyrido [1,2-e]purine-2,4(1H,3H)-dione] | 5.4 | 
6 | CCCCCCNC(=O)NCC#Cc1ccn2c(c1)nc1c(=O)n(-c3ccc(F)cc3)c(=O)[nH]c12 [Compound 20g, 1-[3-[3-(p-Fluorophenyl)-2,4-dioxo-1H-purino [9,8-a]pyridin-7-yl]prop-2-ynyl]-3-hexyl-urea] | 0 | 
7 | COC(=O)c1ccc(Cn2c(=O)n(-c3ccc(F)cc3)c(=O)c3nc4ccccn4c32)cc1 [Compound 13e, Methyl 4-[[3-(p-fluorophenyl)-2,4-dioxo-purino [9,8-a]pyridin-1-l]methyl]benzoate] | 44.8 | 
8 | CCCCCCCC(=O)NCC#Cc1cn(C2CC(O)C(COP(=O)(O)O)O2)c(=O)[nH]c1=O (stereo not drawn) [Compound 3] |  | IC50 (ThyX; C5-modified dUMP analogs, read-out: IC50): 910 nM
9 | N#Cc1ccc(Cn2c(=O)n(-c3ccc(F)cc3)c(=O)c3nc4ccccn4c32)cc1 [Compound 13c, 4-[[3-(p-Fluorophenyl)-2,4-dioxo-purino[9,8-a]pyridin-1-yl]methyl]benzonitrile] | 26.5 | 
10 | O=C1C(O)=C(c2ccco2)C(=O)c2ccccc21 [Compound 2] |  | Ki (ThyX; read-out: inhibitory Ki against ThyX): 28 nM
11 | O=c1[nH]c2c(nc3ccccn32)c(=O)n1-c1ccc(Br)cc1 [Compound 9c, 3-(4-Bromophenyl)pyrido [1,2-e]purine-2,4(1H,3H)-dione] | 52.2 | 
12 | Cc1ccc(Cn2c(=O)n(-c3ccc(F)cc3)c(=O)c3nc4ccccn4c32)cc1 [Compound 13b, 3-(p-Fluorophenyl)-1-[(p-methylphenyl)methyl]purino[9,8-a]pyridine-2,4-dione] | 10.9 | 
13 | O=c1[nH]c2c(nc3ccccn32)c(=O)n1-c1ccc(F)c(F)c1 [Compound 9h, 3-(3,4-Difluorophenyl)pyrido [1,2-e]purine-2,4(1H,3H)-dione] | 22.7 | 
14 | O=c1[nH]c2c(nc3cc(C#CCCc4ccccc4)ccn32)c(=O)n1-c1ccc(F)cc1 [Compound 20a, 3-(p-Fluorophenyl)-7-(4-phenylbut-1-ynyl)-1H-purino [9,8-a]pyridine-2,4-dione] | 32 | 
15 | COc1ccc(-n2c(=O)[nH]c3c(nc4ccccn43)c2=O)cc1 [Compound 9f, 3-(p-Methoxyphenyl)pyrido [1,2-e]purine-2,4(1H,3H)-dione] | 8.1 | 
16 | CCOC(=O)[C@@H]1CSC(c2ccccc2)N1C(=O)c1cn(CCCNC(=O)C(F)(F)F)nn1 (stereo partly drawn) [Compound 1] |  | IC50 (ThyX; read-out: IC50 against ThyX): 57 nM
17 | COc1ccc(-c2ccn3c(c2)nc2c(=O)n(-c4ccc(F)cc4)c(=O)[nH]c23)cc1 [Compound 22c, 3-(p-Fluorophenyl)-7-(p-methoxyphenyl)-1H-purino [9,8-a]pyridine-2,4-dione] | ≤ 28 | 
18 | O=c1[nH]c2c(nc3ccc(-c4ccc(F)cc4)cn32)c(=O)n1-c1ccc(F)cc1 [Compound 23e, 3,8-Bis(p-Fluorophenyl)-1H-purino [9,8-a]pyridine-2,4-dione] | 43.1 | 

Row | SMILES | inhibition at 200 µM (Mtb ThyX [2]; [4]) [%] | further results
19 | CCCCCCCC(=O)NCC#Cc1ccc2nc3c(=O)n(-c4ccc(F)cc4)c(=O)[nH]c3n2c1 [Compound 21f, N-[3-[3-(p-fluorophenyl)-2,4-dioxo-1H-purino [9,8-a]pyridin-8-yl]prop-2-ynyl]octanamide] | 16.9 | 
20 | CCCCCCCC(=O)NCC#Cc1ccn2c(c1)nc1c(=O)n(-c3ccc(F)cc3)c(=O)[nH]c12 [Compound 20f, N-[3-[3-(p-fluorophenyl)-2,4-dioxo-1H-purino [9,8-a]pyridin-7-yl]prop-2-ynyl]octanamide] | 18.8 | 
21 | O=c1[nH]c2c(nc3ccccn32)c(=O)n1-c1ccc(C(F)(F)F)cc1 [Compound 9e, 3-(4-(Trifluoromethyl)phenyl)pyrido [1,2-e]purine-2,4(1H,3H)-dione] | 31.7 | 
22 | O=c1[nH]c2c(nc3ccccn32)c(=O)n1-c1ccc(Cl)cc1 [Compound 9b, 3-(4-Chlorophenyl)pyrido [1,2-e]purine-2,4(1H,3H)-dione] | 49.8 | inhibition at 200 µM (Mtb ThyX [1]): 77.1%; ThyX inhibition, tritium release assay (Mtb ThyX [1]): 69.2%; inhibition at 50 µM (Mtb ThyX [2]; [3]): 2.2%; inhibition at 200 µM (Mtb ThyX [2]; [5]): 12.6%
23 | Cc1cc(N2CCN(C(=O)CCN3C(=O)COc4ccccc43)CC2)nc(C(C)C)n1 [Compound B1-PP146, reference compound] |  | inhibition at 50 µM (Mtb ThyX [2]; positive control, value at 50 μM, NADPH oxidase assay, read-out: Inhibition % (Mtb ThyX)): 95.1%; IC50 (ThyX; read-out: IC50 against ThyX): 690 nM
24 | Cc1ccc2nc3c(=O)n(-c4ccc(F)cc4)c(=O)[nH]c3n2c1 [Compound 18b, 3-(p-Fluorophenyl)-8-methylpyrido [1,2-e]purine-2,4(1H,3H)-dione] | 13.2 | 
25 | COc1ccc(-c2ccc3nc4c(=O)n(-c5ccc(F)cc5)c(=O)[nH]c4n3c2)cc1 [Compound 23c, 3-(p-Fluorophenyl)-8-(p-methoxyphenyl)-1H-purino [9,8-a]pyridine-2,4-dione] | 35.4 | 
26 | O=c1c2nc3ccccn3c2[nH]c(=S)n1-c1ccc(F)cc1 [Compound 11, 3-(4-Fluorophenyl)-2-thioxo-2,3-dihydropyrido [1,2-e]purin-4(1H)-one] | 19.8 | 
27 | O=c1c2nc3ccccn3c2n(Cc2ccc([N+](=O)[O-])cc2)c(=O)n1-c1ccc(F)cc1 [Compound 13d, 3-(p-Fluorophenyl)-1-[(p-nitrophenyl)methyl]purino [9,8-a]pyridine-2,4-dione] | 0 | 
28 | CCCCCCNC(=O)NCC#Cc1ccc2nc3c(=O)n(-c4ccc(F)cc4)c(=O)[nH]c3n2c1 [Compound 21g, 1-[3-[3-(p-Fluorophenyl)-2,4-dioxo-1H-purino [9,8-a]pyridin-8-yl]prop-2-ynyl]-3-hexyl-urea] | 28.2 | 
29 | O=c1[nH]c2c(nc3cc(-c4ccc(F)cc4)ccn32)c(=O)n1-c1ccc(F)cc1 [Compound 22e, 3,7-Bis(p-fluorophenyl)-1H-purino [9,8-a]pyridine-2,4-dione] | ≤ 28 | 
30 | CCCc1ccc(C#Cc2ccn3c(c2)nc2c(=O)n(-c4ccc(F)cc4)c(=O)[nH]c23)cc1 [Compound 20b, 3-(p-Fluorophenyl)-7-[2-(4-propylphenyl)ethynyl]-1H-purino [9,8-a]pyridine-2,4-dione] | 0 | 
31 | CCCCCCC#Cc1ccn2c(c1)nc1c(=O)n(-c3ccc(F)cc3)c(=O)[nH]c12 [Compound 20e, 3-(p-Fluorophenyl)-7-oct-1-ynyl-1H-purino [9,8-a]pyridine-2,4-dione] | 45.1 | 
32 | O=c1[nH]c2c(nc3cc(-c4ccccc4)ccn32)c(=O)n1-c1ccc(F)cc1 [Compound 22a, 3-(p-Fluorophenyl)-7-phenyl-1H-purino [9,8-a]pyridine-2,4-dione] | 20.7 | 
33 | O=c1[nH]c2c(nc3ccc(-c4ccccc4)cn32)c(=O)n1-c1ccc(F)cc1 [Compound 23a, 3-(p-Fluorophenyl)-8-phenyl-1H-purino [9,8-a]pyridine-2,4-dione] | 84.3 | CC50 (in vitro): > 100000 nM
34 | O=c1[nH]c2c(nc3ccccn32)c(=O)n1Cc1ccccc1 [Compound 10a, 3-(Benzyl)pyrido [1,2-e]purine-2,4(1H,3H)-dione] | 22.3 | 
35 | O=c1c2nc3ccccn3c2[nH]c(=S)n1Cc1ccccc1 [Compound 12, 3-Benzyl-2-thioxo-2,3-dihydropyrido [1,2-e]purin-4(1H)-one] | 0 | 
36 | Cc1ccn2c(c1)nc1c(=O)n(-c3ccc(F)cc3)c(=O)[nH]c12 [Compound 18a, 3-(p-Fluorophenyl)-7-methylpyrido [1,2-e]purine-2,4(1H,3H)-dione] | 45.8 | 
